Experimental data taken from patent publication US7517989B2, “Piperidine derivatives useful as modulators of chemokine receptor activity” (AstraZeneca AB, priority 2002, dated 2009).

Key:
[1] = test system: Human eosinophils; experiment: Human eosinophil chemotaxis; type: cell-based; conditions: compound concentration not given
Description: Human Eosinophil Chemotaxis
Human eosinophils were isolated from EDTA anticoagulated peripheral blood as previously described (Hansel et al., J. Immunol. Methods, 1991, 145, 105-110). The cells were resuspended at 10×10^6 ml^−1 in RPMI containing 200 IU/ml penicillin, 200 μg/ml streptomycin sulphate and supplemented with 10% HIFCS, at room temperature.
Eosinophils (700 μl) were pre-incubated for 15 mins at 37° C. with 7 μl of either vehicle or compound (100× required final concentration in 10% DMSO). The chemotaxis plate (ChemoTx, 3 μm pore, Neuroprobe) was loaded by adding 28 μl of a concentration of eotaxin (0.1 to 100 nM) containing a concentration of a compound according to the Examples or solvent to the lower wells of the chemotaxis plate. The filter was then placed over the wells and 25 μl of eosinophil suspension were added to the top of the filter. The plate was incubated for 1 hr at 37° C. in a humidified incubator with a 95% air/5% CO2 atmosphere to allow chemotaxis.
The medium, containing cells that had not migrated, was carefully aspirated from above the filter and discarded. The filter was washed once with phosphate buffered saline (PBS) containing 5 mM EDTA to remove any adherent cells. […] The number of eosinophils migrating was quantified according to the method of Strath et al., J. Immunol. […]

[2] = target: T1, human H1 receptor (Homo sapiens, UniProt P35367); experiment: Histamine H1 receptor binding, [3H]-pyrilamine displacement; conditions: 1 nM [3H]-pyrilamine; membranes of recombinant CHO-1 cells expressing human H1 receptor; read-out: H1 antagonism pKi (converted)
T1 construct: purchased Euroscreen SA, Brussels, Belgium ES-390-M; host or cells: recombinant CHO-1 cells (membranes)
T1 sequence (P35367 whole entry): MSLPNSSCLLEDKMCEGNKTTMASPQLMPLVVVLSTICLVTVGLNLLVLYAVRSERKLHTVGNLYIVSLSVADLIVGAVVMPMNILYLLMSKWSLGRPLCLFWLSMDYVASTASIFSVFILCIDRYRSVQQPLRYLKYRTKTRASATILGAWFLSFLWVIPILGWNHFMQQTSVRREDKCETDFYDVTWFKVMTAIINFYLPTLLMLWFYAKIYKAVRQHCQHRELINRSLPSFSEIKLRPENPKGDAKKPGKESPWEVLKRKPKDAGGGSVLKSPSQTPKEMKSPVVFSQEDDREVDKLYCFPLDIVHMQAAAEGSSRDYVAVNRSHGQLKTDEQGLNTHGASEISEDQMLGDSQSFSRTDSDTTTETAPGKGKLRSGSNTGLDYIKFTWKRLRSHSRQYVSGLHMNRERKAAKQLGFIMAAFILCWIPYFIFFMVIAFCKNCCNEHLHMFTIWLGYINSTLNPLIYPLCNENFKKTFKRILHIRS

Structure (SMILES) | % Inhibition (3 nM Human Eotaxin) [1] [%] | Ki [2] [µM]
O=C(O)C(c1ccccc1)N1CCCC(CN2CCC(Oc3ccc(Cl)c(Cl)c3)CC2)C1 (single isomer, unassigned) [Example 5, 3-[[4-(3,4-dichlorophenoxy)-1-piperidinyl]methyl]-alpha-phenyl-1-piperidineacetic acid] | 96.9 | –
Cc1cc(Cl)ccc1OC1CCN(CC2CN(C(C(=O)O)c3ccccc3)CCO2)CC1 (single isomer, unassigned) [Example 7] | – | 0.631
Cc1cc(Cl)ccc1OC1CCN(CC2CN(C(C(=O)O)c3ccccc3)CCO2)CC1 (single isomer, unassigned) [Example 8] | – | 0.126
Cc1c(Cl)ccc(OC2CCN(CC3CN(C(C(=O)O)c4ccccc4)CCO3)CC2)c1Cl (single isomer, unassigned) [Example 9] | – | 0.316
Cc1c(Cl)ccc(OC2CCN(CC3CN(C(C(=O)O)c4ccccc4)CCO3)CC2)c1Cl (single isomer, unassigned) [Example 10] | – | 0.794
Cc1c(Cl)ccc(OC2CCN(CC3CN(C(C(=O)O)c4ccccc4)CCO3)CC2)c1Cl (single isomer, unassigned) [Example 11] | – | 0.251
Cc1c(Cl)ccc(OC2CCN(CC3CN(C(C(=O)O)c4ccccc4)CCO3)CC2)c1Cl (single isomer, unassigned) [Example 12] | – | 0.0316
O=C(O)[C@@H](c1ccccc1)N1CCO[C@H](CN2CCC(Oc3ccc(Cl)c(Cl)c3)CC2)C1 [Example 2, (α^4R,2R)-2-[[4-(3,4-dichlorophenoxy)-1-piperidinyl]methyl]-α-phenylmorpholineacetic acid] | 96.4 | –
O=C(O)c1ccccc1CN1CCO[C@H](CN2CCC(Oc3ccc(Cl)c(Cl)c3)CC2)C1 [Example 13, 2-[[(2R)-2-[[4-(3,4-dichlorophenoxy)-1-piperidinyl]methyl]-4-morpholinyl]methyl]-benzoic acid] | – | 0.0316
O=C(O)c1ccccc1N1CCO[C@H](CN2CCC(Oc3ccc(Cl)c(Cl)c3)CC2)C1 [Example 15, 2-[(2R)-2-[[4-(3,4-dichlorophenoxy)-1-piperidinyl]methyl]-4-morpholinyl]-benzoic acid] | – | 0.0251
